Test results reported in ChEMBL document CHEMBL4184333, “Expanding Benzoxazole-Based Inosine 5'-Monophosphate Dehydrogenase (IMPDH) Inhibitor Structure-Activity As Potential Antituberculosis Agents” (J Med Chem, 2018).
In brackets after ≈: the same amount, converted by molar mass. Activity calls are given as the source filed them. The rule behind the calls is not given here.

Experiments:
GMP reductase 2 = target: T1, GMP reductase 2 (Homo sapiens, UniProt Q9P2T1); assay: Inhibition of human GMPR2 using GMP as substrate by spectrophotometric method; conditions: read-out: Ki(app)
T1 sequence (Q9P2T1 whole entry): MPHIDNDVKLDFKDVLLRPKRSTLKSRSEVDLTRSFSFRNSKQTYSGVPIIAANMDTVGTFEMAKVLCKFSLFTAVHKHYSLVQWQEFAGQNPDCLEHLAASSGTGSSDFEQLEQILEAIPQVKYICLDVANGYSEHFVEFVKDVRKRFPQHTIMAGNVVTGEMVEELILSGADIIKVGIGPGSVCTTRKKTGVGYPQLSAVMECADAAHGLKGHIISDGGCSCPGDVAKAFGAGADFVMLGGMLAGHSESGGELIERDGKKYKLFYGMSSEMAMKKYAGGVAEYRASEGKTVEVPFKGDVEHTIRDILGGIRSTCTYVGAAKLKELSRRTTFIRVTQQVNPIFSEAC

[1] = target: Inosine-5'-monophosphate dehydrogenase 2 (Homo sapiens, UniProt P12268); assay: Inhibition of human IMPDH2 using IMP as substrate by spectrophotometric method; conditions: read-out: Ki(app)
[2] = tested on: Mycobacterium tuberculosis; assay: Antitubercular activity against Mycobacterium tuberculosis H37Rv ATCC 27294 using 7H9/ADC/Tween medium after 1 week in presence of guanine by broth microdilution method; assay type: functional; conditions: H37Rv ATCC 27294, 168 h
[3] = tested on: Mycobacterium tuberculosis; assay: Antitubercular activity against Mycobacterium tuberculosis H37Rv ATCC 27294 using GAST/Fe medium after 1 week in absence of guanine by broth microdilution method; assay type: functional; conditions: H37Rv ATCC 27294, 168 h
[4] = tested on: Mycobacterium tuberculosis; assay: Antitubercular activity against Mycobacterium tuberculosis H37Rv ATCC 27294 using 7H9/ADC/Tween medium after 1 week in absence of guanine by broth microdilution method; assay type: functional; conditions: H37Rv ATCC 27294, 168 h
[5] = tested on: Mycobacterium tuberculosis; assay: Antitubercular activity against Mycobacterium tuberculosis H37Rv ATCC 27294 using GAST/Fe medium after 1 week in presence of guanine by broth microdilution method; assay type: functional; conditions: H37Rv ATCC 27294, 168 h
[6] = tested on: Mycobacterium tuberculosis; assay: Antitubercular activity against Mycobacterium tuberculosis H37Rv ATCC 27294 using GAST/Fe medium after 2 weeks in absence of guanine by broth microdilution method; assay type: functional, organism-based
[7] = tested on: Mycobacterium tuberculosis; assay: Antitubercular activity against Mycobacterium tuberculosis H37Rv ATCC 27294 using 7H9/ADC/Tween medium after 1 week in absence of guanine and presence of anhydrotetracycline by Alamar blue assay; assay type: functional; conditions: H37Rv ATCC 27294, 168 h
[8] = Cytotoxicity against human HepG2 cells after 24 hrs by LDH release assay; assay type: cell-based; conditions: HepG2 cells, read-out: LD50
HepG2 = assay: Cytotoxicity against human HepG2 cells assessed as LDH release at 25 uM after 24 hrs relative to control; assay type: cell-based; conditions: hepg2, 24 h
[9] = tested on: Mycobacterium tuberculosis; assay: Antitubercular activity against Mycobacterium tuberculosis H37Rv ATCC 27294 using 7H9/ADC/Tween medium after 2 weeks in absence of guanine by broth microdilution method; assay type: functional, organism-based

SMILES	Ki (GMP reductase 2)	Ki [1]	MIC [2]	MIC [3]	MIC [4]	MIC [5]	Activity [6]	MIC [7]	CC50 at 24 h [8]	Activity (HepG2)	Activity [9]
C[C@H](Oc1cccc(Cl)c1Cl)C(=O)Nc1ccc2oc(-c3ccc(C(N)=O)cc3)nc2c1	> 5 µM	> 5 µM									
C[C@H](Oc1ccccc1O)C(=O)Nc1ccc2oc(-c3ccc(C#N)cc3)nc2c1	> 5 µM	> 5 µM	22 µM	22 µM (≈ 8.79 µg/mL)	9.4 µM (≈ 3.75 µg/mL)	25 µM					
C[C@H](Oc1cccc(Cl)c1Cl)C(=O)Nc1ccc2oc(-c3ccc(C(=O)O)cc3)nc2c1	> 5 µM	> 5 µM	> 50 µM	4 µM (≈ 1.89 µg/mL)	≥ 25 µM	5 µM	Active				
C[C@H](Oc1cccc(Cl)c1Cl)C(=O)Nc1ccc2oc(-c3ccc(F)cc3)nc2c1	> 5 µM	> 5 µM	> 50 µM	> 50 µM	> 50 µM	> 50 µM					
C[C@H](Oc1cccc(F)c1F)C(=O)Nc1ccc2oc(-c3ccc(O)cc3)nc2c1	> 5 µM	> 5 µM	> 30 µM	6 µM (≈ 2.46 µg/mL)	7 µM (≈ 2.87 µg/mL)	19 µM					
COc1ccc(-c2nc3cc(NC(=O)[C@H](C)Oc4ccccc4CN)ccc3o2)cc1	> 5 µM	> 5 µM	9.4 µM	9.4 µM (≈ 3.92 µg/mL)	5.5 µM (≈ 2.3 µg/mL)	16 µM					
C[C@H](Oc1ccccc1C#N)C(=O)Nc1ccc2oc(-c3ccncc3)nc2c1	> 5 µM	> 5 µM									
COc1ccc(OC(C)C(=O)Nc2ccc3oc(-c4ccncc4)nc3c2)cc1 (stereo not drawn)	> 5 µM	> 5 µM	21 µM	5.3 µM (≈ 2.06 µg/mL)	10 to 12.5 µM (≈ 3.89 to 4.87 µg/mL)	24 µM		12.5 µM			
CCOC(=O)COc1cccc(-c2nc3cc(NC(=O)[C@H](C)Oc4cccc(Cl)c4Cl)ccc3o2)c1	> 5 µM	> 5 µM	1.6 µM	0.9 µM (≈ 0.476 µg/mL)	1.6 µM (≈ 0.847 µg/mL)	1.4 µM					
C[C@H](Oc1cccc(Cl)c1Cl)C(=O)Nc1ccc2oc(-c3ccc(C#N)cc3)nc2c1	> 5 µM	2.3 µM	6 µM	4 µM (≈ 1.81 µg/mL)	3 µM (≈ 1.36 µg/mL)	5 µM					
C[C@H](Oc1cccc2c1B(O)OC2)C(=O)Nc1ccc2oc(-c3ccc(C#N)cc3)nc2c1	> 5 µM	> 5 µM									
C[C@H](Oc1cccc(Cl)c1Cl)C(=O)Nc1ccc2oc(-c3cccc(O)c3)nc2c1	> 5 µM	> 5 µM									
C[C@H](Oc1ccccc1OCc1ccccc1)C(=O)Nc1ccc2oc(-c3ccc(C#N)cc3)nc2c1	> 5 µM	> 5 µM									
C[C@H](Oc1cccc(F)c1F)C(=O)Nc1ccc2oc(-c3ccc(C#N)cc3)nc2c1	> 5 µM	2 µM	4 µM	3 µM (≈ 1.26 µg/mL)	1.5 µM (≈ 0.629 µg/mL)	6.3 µM			> 25 µM	9 to 13%	
C[C@H](Oc1ccc(F)c(F)c1F)C(=O)Nc1ccc2oc(-c3ccc(C#N)cc3)nc2c1	> 5 µM	> 5 µM	> 50 µM	> 50 µM	> 50 µM	> 50 µM					
COc1ccc(-c2nc3cc(NC(=O)[C@H](C)Oc4cccc(Cl)c4Cl)ccc3o2)cc1	> 5 µM	> 5 µM	> 50 µM	> 50 µM	> 50 µM	> 50 µM					
C[C@H](Oc1cccc(Cl)c1Cl)C(=O)Nc1ccc2oc(-c3ccc(OC(F)(F)F)cc3)nc2c1	> 5 µM	> 5 µM	> 50 µM	> 50 µM	> 50 µM	> 50 µM					
COc1ccc(-c2nc3cc(NC(=O)[C@H](C)Oc4cccc(Cl)c4Cl)ccc3o2)cn1	> 5 µM	> 5 µM	> 25 µM	7 µM (≈ 3.21 µg/mL)	6 µM (≈ 2.75 µg/mL)	9 µM					
C[C@H](Oc1cccc(F)c1C#N)C(=O)Nc1ccc2oc(-c3ccncc3)nc2c1	> 5 µM	> 5 µM	8 µM	6 µM (≈ 2.41 µg/mL)	4 µM (≈ 1.61 µg/mL)	11 µM					
C[C@H](Oc1cccc(Cl)c1Cl)C(=O)Nc1ccc2oc(-c3ccc(CN)cc3)nc2c1	> 5 µM	> 5 µM	25 µM	11 µM (≈ 5.02 µg/mL)	25 µM (≈ 11.4 µg/mL)	11 µM					
C[C@H](Oc1cccc(Cl)c1Cl)C(=O)Nc1ccc2oc(-c3ccc(/C(N)=N\O)cc3)nc2c1	> 5 µM	> 5 µM	> 50 µM	25 µM (≈ 12.1 µg/mL)	> 50 µM	25 µM					

SMILES	Ki (GMP reductase 2)	Ki [1]	MIC [2]	MIC [3]	MIC [4]	MIC [5]	Activity [6]	MIC [7]	CC50 at 24 h [8]	Activity (HepG2)	Activity [9]
C[C@H](Oc1cccc(Cl)c1Cl)C(=O)Nc1ccc2oc(-c3ccc(C(=O)NO)cc3)nc2c1	> 5 µM	> 5 µM	> 50 µM	3 µM (≈ 1.46 µg/mL)	30 µM (≈ 14.6 µg/mL)	6 µM	Active				
C[C@H](Oc1cccc(Cl)c1Cl)C(=O)Nc1ccc2oc(-c3ccc(-c4n[nH]c(=O)o4)cc3)nc2c1	> 5 µM	2.9 µM	> 50 µM	> 50 µM	> 50 µM	> 50 µM					
C[C@H](Oc1cccc(F)c1F)C(=O)Nc1ccc2oc(-c3ccc(F)cc3)nc2c1	> 5 µM	> 5 µM	> 50 µM	> 50 µM	> 50 µM	> 50 µM					
COc1ccc(-c2nc3cc(NC(=O)[C@H](C)Oc4cccc(F)c4F)ccc3o2)cc1	> 5 µM	> 5 µM	14 µM	5 µM (≈ 2.12 µg/mL)	4 µM (≈ 1.7 µg/mL)	8 µM					
C[C@H](Oc1cccc(F)c1F)C(=O)Nc1ccc2oc(-c3ccncc3)nc2c1	> 5 µM	> 5 µM	4 µM	4 µM (≈ 1.58 µg/mL)	1.9 µM (≈ 0.751 µg/mL)	6.3 µM	Active				Active
C[C@H](Oc1cccc(Cl)c1Cl)C(=O)Nc1ccc2oc(-c3ccccc3O)nc2c1	> 5 µM	> 5 µM									
C[C@H](Oc1cccc(Cl)c1Cl)C(=O)Nc1ccc2oc(-c3cc[n+]([O-])cc3)nc2c1	> 5 µM	> 5 µM									
C[C@H](Oc1cccc(Cl)c1Cl)C(=O)Nc1ccc2oc(-c3cccc(OCC(=O)O)c3)nc2c1	> 5 µM	> 5 µM									
C[C@H](Oc1cccc(Cl)c1Cl)C(=O)Nc1ccc2oc(-c3ccc(O)cc3)nc2c1	> 5 µM	> 5 µM									
COc1ccc(-c2nc3cc(NC(=S)[C@H](C)Oc4cccc(Cl)c4Cl)ccc3o2)cc1	> 5 µM	> 5 µM	> 50 µM	37 µM (≈ 17.5 µg/mL)	> 50 µM	> 50 µM					
COc1ccc(-c2nc3cc(NC(=O)[C@H](C)Oc4ccccc4C#N)ccc3o2)cc1	> 5 µM	> 5 µM	4.7 µM	3.1 µM (≈ 1.28 µg/mL)	1.2 µM (≈ 0.496 µg/mL)	6.3 µM	Active		> 25 µM	9 to 13%	Active
COc1ccc(Cc2nc3cc(NC(=O)[C@H](C)Oc4cccc(Cl)c4Cl)ccc3o2)cc1	> 5 µM	> 5 µM									
C[C@H](Oc1cccc(Cl)c1Cl)C(=O)Nc1ccc2oc(-c3ccncc3)nc2c1	> 5 µM	> 5 µM	28 µM	9.4 µM (≈ 4.03 µg/mL)	16 µM (≈ 6.85 µg/mL)	37 µM					
C[C@H](Oc1cccc(Cl)c1Cl)C(=O)Nc1ccc2oc(-c3ccc(C(=O)NN)cc3)nc2c1	> 5 µM	> 5 µM									
COC(=O)c1ccc(-c2nc3cc(NC(=O)[C@H](C)Oc4cccc(Cl)c4Cl)ccc3o2)cc1	> 5 µM	> 5 µM									
C[C@H](Nc1cccc(Cl)c1Cl)C(=O)Nc1ccc2oc(-c3ccc(C#N)cc3)nc2c1	> 5 µM	3.3 µM	6 µM	4 µM (≈ 1.81 µg/mL)	3 µM (≈ 1.35 µg/mL)	13 µM	Active				Active
COc1ccc(-c2nc3cc(NC(=O)[C@H](C)Oc4cccc(F)c4F)ccc3o2)cn1	> 5 µM	> 5 µM	> 50 µM	6 µM (≈ 2.55 µg/mL)	> 50 µM	8 µM					
C[C@H](Oc1cccc(Cl)c1Cl)C(=O)Nc1ccc2oc(-c3ccc(-c4noc(=O)[nH]4)cc3)nc2c1	> 5 µM	> 5 µM									
C[C@H](Nc1cccc(Cl)c1Cl)C(=O)Nc1ccc2oc(-c3ccncc3)nc2c1	> 5 µM	> 5 µM	35 µM	6.7 µM (≈ 2.86 µg/mL)	12 µM (≈ 5.13 µg/mL)	50 µM					
COc1ccc(-c2cn3cc(NC(=O)[C@H](C)Oc4cccc(Cl)c4Cl)ccc3n2)cc1	> 5 µM	> 5 µM									
